Laboratory results taken from patent US9592221B2, “Antibacterial agents: aryl myxopyronin derivatives” (priority 2012, dated 2017).
pIC50: −log10 of the molar value. Values after ≈ are worked out from the molar mass of the structure shown.

Key:
[1] = molecular target: E. coli RNA polymerase σ^70 holoenzyme (Escherichia coli, UniProt P0A8T7+P0A8V2); test: Fluorescence-detected RNA polymerase assay, E. coli RNA polymerase; type: biochemical; details: read-out: IC50 E. coli RNAP
[2] = system: Escherichia coli D21f2tolC; test: MIC, spiral gradient endpoint assay, E. coli D21f2tolC; type: cell-based; details: Escherichia coli, D21F2TOLC, read-out: MIC E. coli D21f2toIC
[3] = system: Staphylococcus aureus ATCC 12600; test: MIC, spiral gradient endpoint assay, S. aureus ATCC 12600; type: cell-based; details: ATCC12600; Staphylococcus aureus ATCC 12600
[4] = system: Acinetobacter baumannii ATCC 19606; test: MIC, spiral gradient endpoint assay, A. baumannii; type: cell-based; details: ATCC19606; Acinetobacter baumannii ATCC 19606
[5] = system: Francisella tularensis SCHU4; test: microbe, parasite or virus in culture; type: cell-based; details: Francisella tularensis, SCHU4, read-out: MIC F. tularensis SCHU4
[6] = system: Bacillus anthracis Vollum 1b; test: microbe, parasite or virus in culture; type: cell-based; details: Bacillus anthracis, VOLLUM1B, read-out: MIC B. anthracis Vollum-1b
Brucella melitensis 16M = test: microbe, parasite or virus in culture; type: cell-based; details: Brucella melitensis, 16M, read-out: MIC B. melitensis 16M
[7] = system: Mycobacterium tuberculosis H37Rv; test: MIC, microplate Alamar Blue assay, M. tuberculosis; type: cell-based
[8] = system: Burkholderia pseudomallei Human/Blood/OH/US/1994; test: microbe, parasite or virus in culture; type: cell-based; details: Burkholderia pseudomallei, read-out: MIC B. pseudomallei Human/Blood/OH
Burkholderia mallei CHN7 = test: microbe, parasite or virus in culture; type: cell-based; details: Burkholderia mallei, CHN7, read-out: MIC B. mallei CHN7

Sequence of E. coli RNA polymerase σ^70 holoenzyme (P0A8T7 whole entry): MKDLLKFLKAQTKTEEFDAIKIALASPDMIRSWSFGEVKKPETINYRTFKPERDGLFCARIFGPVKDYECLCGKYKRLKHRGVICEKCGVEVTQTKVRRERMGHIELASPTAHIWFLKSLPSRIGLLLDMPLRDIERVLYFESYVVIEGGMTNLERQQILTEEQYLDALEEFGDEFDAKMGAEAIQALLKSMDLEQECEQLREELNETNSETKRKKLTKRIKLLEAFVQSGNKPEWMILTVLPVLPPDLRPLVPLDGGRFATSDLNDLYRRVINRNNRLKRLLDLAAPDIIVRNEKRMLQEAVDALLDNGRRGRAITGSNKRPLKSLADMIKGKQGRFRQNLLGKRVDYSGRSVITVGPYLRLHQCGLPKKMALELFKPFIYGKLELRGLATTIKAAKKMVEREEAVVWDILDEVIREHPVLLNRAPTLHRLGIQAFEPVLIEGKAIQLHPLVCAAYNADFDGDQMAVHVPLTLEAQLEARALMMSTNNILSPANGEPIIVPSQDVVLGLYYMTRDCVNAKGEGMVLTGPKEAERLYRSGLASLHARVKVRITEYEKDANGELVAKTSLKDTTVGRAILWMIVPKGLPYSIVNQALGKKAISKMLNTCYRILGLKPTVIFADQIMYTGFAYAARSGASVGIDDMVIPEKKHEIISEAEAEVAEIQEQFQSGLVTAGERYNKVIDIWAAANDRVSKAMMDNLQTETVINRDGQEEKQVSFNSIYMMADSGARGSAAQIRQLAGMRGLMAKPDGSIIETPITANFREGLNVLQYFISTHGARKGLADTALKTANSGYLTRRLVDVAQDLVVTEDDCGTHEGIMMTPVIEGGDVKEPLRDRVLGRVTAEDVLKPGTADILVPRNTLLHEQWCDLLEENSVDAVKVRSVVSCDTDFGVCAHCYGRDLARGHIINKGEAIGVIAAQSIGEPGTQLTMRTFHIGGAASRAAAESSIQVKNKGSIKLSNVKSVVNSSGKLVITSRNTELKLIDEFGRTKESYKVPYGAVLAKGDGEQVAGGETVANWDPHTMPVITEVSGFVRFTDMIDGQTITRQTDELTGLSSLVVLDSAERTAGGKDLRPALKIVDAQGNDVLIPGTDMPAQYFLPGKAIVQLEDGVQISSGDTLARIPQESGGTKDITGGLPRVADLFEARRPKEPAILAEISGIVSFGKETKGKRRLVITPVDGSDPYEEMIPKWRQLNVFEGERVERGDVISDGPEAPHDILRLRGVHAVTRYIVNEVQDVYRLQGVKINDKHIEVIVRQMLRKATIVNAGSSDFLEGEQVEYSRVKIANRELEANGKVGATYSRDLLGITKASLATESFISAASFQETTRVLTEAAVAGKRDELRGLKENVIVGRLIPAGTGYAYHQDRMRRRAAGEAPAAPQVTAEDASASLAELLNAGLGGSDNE
Sequence of E. coli RNA polymerase σ^70 holoenzyme (P0A800 whole entry, further chain): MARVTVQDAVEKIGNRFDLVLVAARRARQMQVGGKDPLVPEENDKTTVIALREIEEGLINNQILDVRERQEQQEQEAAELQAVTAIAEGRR
Sequence of E. coli RNA polymerase σ^70 holoenzyme (P0A8V2 whole entry): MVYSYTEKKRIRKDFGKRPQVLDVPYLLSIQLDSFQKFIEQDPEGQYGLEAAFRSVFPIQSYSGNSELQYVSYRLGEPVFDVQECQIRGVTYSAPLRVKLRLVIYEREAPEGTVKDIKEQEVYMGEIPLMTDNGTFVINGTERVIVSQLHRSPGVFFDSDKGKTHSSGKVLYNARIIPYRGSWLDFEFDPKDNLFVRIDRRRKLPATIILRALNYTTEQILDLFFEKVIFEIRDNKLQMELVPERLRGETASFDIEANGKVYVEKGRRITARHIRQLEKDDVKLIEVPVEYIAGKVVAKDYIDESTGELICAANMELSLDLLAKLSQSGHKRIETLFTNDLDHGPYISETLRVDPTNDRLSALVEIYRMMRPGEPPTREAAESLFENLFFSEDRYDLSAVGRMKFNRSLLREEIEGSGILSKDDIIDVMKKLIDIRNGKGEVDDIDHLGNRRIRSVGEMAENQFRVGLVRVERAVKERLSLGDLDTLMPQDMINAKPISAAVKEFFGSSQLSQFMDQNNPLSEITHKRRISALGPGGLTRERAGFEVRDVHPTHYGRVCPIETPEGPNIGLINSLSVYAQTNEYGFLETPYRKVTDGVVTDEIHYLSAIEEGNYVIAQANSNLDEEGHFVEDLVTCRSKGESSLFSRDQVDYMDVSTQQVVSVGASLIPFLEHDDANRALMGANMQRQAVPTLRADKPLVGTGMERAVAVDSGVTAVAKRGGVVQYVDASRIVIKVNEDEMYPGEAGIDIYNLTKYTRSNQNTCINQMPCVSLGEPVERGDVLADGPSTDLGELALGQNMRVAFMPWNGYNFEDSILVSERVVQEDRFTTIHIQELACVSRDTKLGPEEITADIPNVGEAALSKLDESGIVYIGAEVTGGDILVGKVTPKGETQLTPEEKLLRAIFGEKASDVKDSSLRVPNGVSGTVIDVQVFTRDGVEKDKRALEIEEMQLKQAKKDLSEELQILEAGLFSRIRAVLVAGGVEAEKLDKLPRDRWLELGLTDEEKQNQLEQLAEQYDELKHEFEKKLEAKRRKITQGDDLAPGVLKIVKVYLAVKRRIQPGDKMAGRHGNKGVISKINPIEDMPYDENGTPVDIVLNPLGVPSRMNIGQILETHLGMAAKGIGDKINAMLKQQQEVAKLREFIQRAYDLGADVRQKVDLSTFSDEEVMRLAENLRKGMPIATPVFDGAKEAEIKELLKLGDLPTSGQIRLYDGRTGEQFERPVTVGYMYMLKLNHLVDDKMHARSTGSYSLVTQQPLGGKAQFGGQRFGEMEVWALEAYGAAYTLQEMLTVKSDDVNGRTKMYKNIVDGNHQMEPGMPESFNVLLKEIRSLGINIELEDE
Sequence of E. coli RNA polymerase σ^70 holoenzyme (P00579 whole entry, further chain): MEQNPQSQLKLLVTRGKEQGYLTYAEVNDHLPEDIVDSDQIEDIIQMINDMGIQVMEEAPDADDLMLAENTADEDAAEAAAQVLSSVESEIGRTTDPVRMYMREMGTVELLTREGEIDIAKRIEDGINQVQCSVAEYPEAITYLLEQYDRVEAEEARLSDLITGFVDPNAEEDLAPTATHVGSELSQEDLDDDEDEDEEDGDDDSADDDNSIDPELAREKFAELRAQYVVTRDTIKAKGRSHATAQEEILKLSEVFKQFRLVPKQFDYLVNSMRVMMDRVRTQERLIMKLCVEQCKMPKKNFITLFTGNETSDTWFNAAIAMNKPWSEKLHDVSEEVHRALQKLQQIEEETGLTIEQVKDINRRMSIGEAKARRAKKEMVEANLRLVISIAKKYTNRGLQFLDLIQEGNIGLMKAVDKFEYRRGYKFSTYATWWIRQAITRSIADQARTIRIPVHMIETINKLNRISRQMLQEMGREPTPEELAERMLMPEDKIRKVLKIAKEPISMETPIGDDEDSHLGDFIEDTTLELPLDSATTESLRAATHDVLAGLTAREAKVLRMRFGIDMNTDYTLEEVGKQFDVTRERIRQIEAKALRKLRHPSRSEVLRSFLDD
Sequence of E. coli RNA polymerase σ^70 holoenzyme (P0A7Z4 whole entry, further chain): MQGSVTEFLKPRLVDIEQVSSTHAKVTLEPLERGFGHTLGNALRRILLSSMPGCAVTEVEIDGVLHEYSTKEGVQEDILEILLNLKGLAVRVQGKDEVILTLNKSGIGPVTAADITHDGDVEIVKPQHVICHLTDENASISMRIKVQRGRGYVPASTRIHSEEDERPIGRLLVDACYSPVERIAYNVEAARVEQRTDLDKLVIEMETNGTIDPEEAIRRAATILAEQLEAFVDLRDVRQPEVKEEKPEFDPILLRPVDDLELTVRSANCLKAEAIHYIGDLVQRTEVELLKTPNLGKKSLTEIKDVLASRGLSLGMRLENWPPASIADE

Structure (SMILES) | pIC50 [1] | MIC [2] [µg/mL] | MIC [3] [µg/mL] | MIC [4] [µg/mL] | MIC [5] [µg/mL] | MIC [6] [µg/mL] | MIC (Brucella melitensis 16M) [µg/mL] | MIC [7] [µg/mL] | MIC [8] [µg/mL] | MIC (Burkholderia mallei CHN7) [µg/mL]
COC(=O)N/C=C/CCC(C)c1cc(O)c(C(=O)C(C)=Cc2ccc(OCCC(C)C)cc2)c(=O)o1 (mixture of isomers) [APY50, methyl (E)-5-(4-hydroxy-3-((E/Z)-3-(4-isopentyloxy)phenyl)-2-methacryloyl-2-oxo-2H-pyran-6-yl)hex-1-enylcarbamate] | < 5.22 | 2 | > 40 | > 40 |  |  |  |  |  | 
COC(=O)N/C=C/CCC(C)c1cc(O)c(C(=O)C(C)=Cc2cccc(OCCC(C)C)c2)c(=O)o1 (mixture of isomers) [APY51, methyl (E)-5-(4-hydroxy-3-((E/Z)-3-(3-isopentyloxy)phenyl)-2-methacryloyl-2-oxo-2H-pyran-6-yl)hex-1-enylcarbamate] | 6.00 | 0.5 | > 40 | > 40 |  |  |  |  |  | 
COC(=O)N/C=C/CCC(C)c1cc(O)c(C(=O)C(C)=Cc2ccc(OCC3CCCC3)cc2)c(=O)o1 (mixture of isomers) [APY52] | 5.70 | 0.4 | 4 | > 40 | 30 | 2 | 3 | 30 | > 50 | 50
COC(=O)N/C=C/CCC(C)c1cc(O)c(C(=O)C(C)=Cc2ccc(OCC(C)C)cc2)c(=O)o1 (mixture of isomers) [APY53, methyl (E)-5-(4-hydroxy-3-((E/Z)-3-(4-isobutoxyphenyl)-2-methacryloyl)-4-hydroxy-2-oxo-2H-pyran-6-yl)hex-1-enylcarbamate] | 5.70 | 0.4 | 2 | > 40 | 50 | 3 | 10 | 6 | > 50 | > 50
COC(=O)N/C=C/CCC(C)c1cc(O)c(C(=O)C(C)=Cc2ccc(OCC3CCCO3)cc2)c(=O)o1 (mixture of isomers) [APY54, methyl (E)-5-(4-hydroxy-3-((E/Z)-2-methyl-3-(4-((tetrahydrofuran-2-yl)methoxy)phenyl)acryloyl)-2-oxo-2H-pyran-6-y)hex-1-enylcarbamate] | < 5.22 | 7 | > 40 | > 40 |  |  |  |  |  | 
COC(=O)N/C=C/CCC(C)c1cc(O)c(C(=O)C(C)=Cc2ccc(OCC(C)(C)C)cc2)c(=O)o1 (mixture of isomers) [APY55, methyl (E)-5-(4-hydroxy-3-((E/Z)-2-methyl-3-(4-(neopentyloxy)phenyl)acryloyl)-2-oxo-2H-pyran-6-yl)hex-1-enylcarbamate] | 7.40 | 0.7 | 10 | > 40 | 30 | 2 | 30 | 10 | > 50 | 50
COC(=O)N/C=C/CCC(C)c1cc(O)c(C(=O)C(C)=Cc2ccc(CCC(C)(C)C)s2)c(=O)o1 (mixture of isomers) [APY56, methyl (E)-5-(4-hydroxy-5-((E/Z)-2-methyl-3-(5-(3,3-dimethylbutyl)thiophen-2-yl)acryloyl)-6-oxo-6H-pyran-2-yl)hex-1-enylcarbamate] | 8.15 | 0.2 | 0.7 | 10 | 6 | 0.2 | 3 | 10 | 6 | 3
COC(=O)N/C=C/CCC(C)c1cc(O)c(C(=O)C(C)=Cc2ccc(C)cc2)c(=O)o1 (mixture of isomers) [APY57, methyl (E)-5-(4-hydroxy-5-((E/Z)-2-methyl-3-p-tolylacryloyl)-6-oxo-6H-pyran-2-yl)hex-1-enylcarbamate] | < 5.22 | 1 | > 40 | > 40 |  |  |  |  |  | 
CCCc1ccc(C=C(C)C(=O)c2c(O)cc(C(C)CC/C=C/NC(=O)OC)oc2=O)s1 (mixture of isomers) [APY58, methyl (E)-5-(4-hydroxy-5-((E/Z)-2-methyl-3-(5-propylthiophen-2-yl)acryloyl)-6-oxo-6H-pyran-2-yl)hex-1-enylcarbamate] | 7.10 | 0.2 | 1 | > 40 | 50 | 10 | > 50 | 10 | 50 | 50
COC(=O)N/C=C/CCC(C)c1cc(O)c(C(=O)C(C)=Cc2ccc(CCC3CCCCC3)s2)c(=O)o1 (mixture of isomers) [APY62, methyl (E)-5-(5-((E/Z)-3-(5-(2-cyclohexylethyl)thiophen-2-yl)-2-methylacryloyl)-4-hydroxy-6-oxo-6H-pyran-2-yl)hex-1-enylcarbamate] | 8.00 | 10 | 2 | > 40 |  |  |  |  |  | 
COC(=O)N/C=C/CCC(C)c1cc(O)c(C(=O)C(C)=Cc2ccc(C)s2)c(=O)o1 (mixture of isomers) [APY69, methyl (E)-5-(4-hydroxy-5-((E/Z)-2-methyl-3-(5-methylthiophen-2-yl)acryloyl)-6-oxo-6H-pyran-2-yl)hex-1-enylcarbamate] | 6.00 | 7 | > 40 | > 40 |  |  |  |  |  | 
CCCc1ccc(C=C(C)C(=O)c2c(O)cc(C(C)CC/C=C/NC(=O)OC)oc2=O)cc1 (mixture of isomers) [APY71, methyl (E)-5-(4-hydroxy-5-((E/Z)-2-methyl-3-(4-propylphenyl)acryloyl)-6-oxo-6H-pyran-2-yl)hex-1-enylcarbamate] | 6.40 | 0.5 | 4 | > 40 | > 50 | 30 | 10 |  | > 50 | > 50
CCCCCc1ccc(C=C(C)C(=O)c2c(O)cc(C(C)CC/C=C/NC(=O)OC)oc2=O)cc1 (mixture of isomers) [APY72, methyl (E)-5-(4-hydroxy-5-((E/Z)-2-methyl-3-(4-pentylphenyl)acryloyl)-6-oxo-6H-pyran-2-yl)hex-1-enylcarbamate] | 6.70 | 0.2 | 2 | > 40 | 10 | 3 | 2 |  | 50 | 10
CCc1ccc2cc(C=C(C)C(=O)c3c(O)cc(C(C)CC/C=C/NC(=O)OC)oc3=O)oc2c1 (mixture of isomers) [APY110, methyl ((1E)-5-(3-(3-(6-ethylbenzofuran-2-yl)-2-methylacryloyl)-4-hydroxy-2-oxo-2H-pyran-6-yl)hex-1-en-1-yl)carbamate] | 6.70 | 0.3 | 8 | > 40 |  |  |  | 30 |  | 
COC(=O)N/C=C/CCC(C)c1cc(O)c(C(=O)C(C)=Cc2cc3ccc(CCC(C)C)cc3o2)c(=O)o1 (mixture of isomers) [APY111, methyl ((1E)-5-(4-hydroxy-3-(3-(6-isopentylbenzofuran-2-yl)-2-methylacryloyl)-2-oxo-2H-pyran-6-yl)hex-1-en-1-yl)carbamate] | 7.30 | 0.3 | > 40 | > 40 |  |  |  |  |  | 
COC(=O)N/C=C/CCC(C)c1cc(O)c(C(=O)C(C)=Cc2cc3ccc(CCC(F)(F)F)cc3o2)c(=O)o1 (mixture of isomers) [APY112, methyl ((1E)-5-(4-hydroxy-3-(2-methyl-3-(6-(3,3,3-trifluoropropyl)benzofuran-2-yl)acryloyl)-2-oxo-2H-pyran-6-yl)hex-1-en-1-yl)carbamate] | 6.52 | 0.2 | > 40 | > 40 |  |  |  |  |  | 
COC(=O)N/C=C/CCC(C)c1cc(O)c(C(=O)C(C)=Cc2cc3ccc(CCC(F)(F)F)cc3s2)c(=O)o1 (mixture of isomers) [APY114, methyl ((1E)-5-(4-hydroxy-3-(2-methyl-3-(6-(3,3,3-trifluoropropyl)benzo[b]thiophen-2-yl)acryloyl)-2-oxo-2H-pyran-6-yl)hex-1-en-1-yl)carbamate] | 6.52 | 0.2 | > 40 | > 40 |  |  |  |  |  | 
COC(=O)N/C=C/CCC(C)c1cc(O)c(C(=O)C(C)=Cc2cc(CCC(F)(F)F)cn2C)c(=O)o1 (mixture of isomers) [APY135, methyl ((1E)-5-(4-hydroxy-3-(2-methyl-3-(1-methyl-4-(3,3,3-trifluoropropyl)-1H-pyrrol-2-yl)acryloyl)-2-oxo-2H-pyran-6-yl)hex-1-en-1-yl)carbamate] | 7.00 | 2 | 10 | > 40 |  |  |  |  |  | 
CCCc1cn(C)c(C=C(C)C(=O)c2c(O)cc(C(C)CC/C=C/NC(=O)OC)oc2=O)n1 (mixture of isomers) [APY143, methyl ((1E)-5-(4-hydroxy-3-(2-methyl-3-(1-methyl-4-propyl-1H-imidazol-2-yl)acryloyl)-2-oxo-2H-pyran-6-yl)hex-1-en-1-yl)carbamate] | 6.00 | 10 | > 40 | > 40 |  |  |  |  |  | 
COC(=O)N/C=C/CCC(C)c1cc(O)c(C(=O)C(C)=Cc2cnc(N3CCCCC3)s2)c(=O)o1 (stereo not shown) [APY142] | 6.22 | 1 (≈ 1.99 µM) | 20 (≈ 39.9 µM) | > 40 |  |  |  |  |  | 
